# Test results as given in patent US20080014323A1, “ANTIOXIDANT COMBINATIONS FOR USE IN FEED RATIONS TO IMPROVE ANTIOXIDANT STATUS OF RUMINANTS” (NOVUS INTERNATIONAL INC., priority 2006, published 2008).
# How the values were obtained:
# [1] = Active oxygen method (AOM): peroxide value of oils or fats after oxidative stress; format: physicochemical; details: soybean oil subjected to oxidative stress; 500 ppm; FIG. 1
# [2] = Oil stability index (OSI) induction time; format: physicochemical; details: soybean oil; 500 ppm; FIG. 1
smiles,measurement,setting,value
"CCOc1ccc2c(c1)C(C)=CC(C)(C)N2 [ETX, 6-ethoxy-1,2-dihydro-2,2,4-trimethylquinoline]",peroxide values,[1],about 11 meq
same,OSI induction time,[2],about 6 hr
